`CCCCCCCCCCCCCCCCSC1OC(C)C(OC(C)=O)C(OC(C)=O)C1OC(C)=O` (stereo not given) gave a melting point of 49 to 50 °C. `COc1cc2ncnc(N3CCc4cc([N+](=O)[O-])c(Cl)cc43)c2cc1OC` showed a melting point of 276 to 278 °C. Compound `O=C(CCc1ccccc1)N[C@H](Cc1ccc(C(F)(F)F)cc1)[C@@H](O)c1ccc(Oc2ccccc2)cc1` (racemic) has a melting point of 133 to 134 °C. Compound `CC(C)=CCCOc1c(-c2ccc(S(C)(=O)=O)cc2)cnn(-c2cccc(Cl)c2)c1=O` has a melting point of 110 to 111 °C. In the case of `Cc1oc2ccccc2c(=O)c1N`, the melting point is reported as 118 to 120 °C. With `O=C(O)c1cc(OCc2ccccc2)cc(OCc2ccccc2)c1` the melting point was 211 to 213 °C. `CSc1onc(-c2ccccc2)c1-c1ccccc1` gave a melting point of 83 to 86 °C. For `O=C(O)c1cccn2c(-c3ccc(F)cc3)cnc12`, the melting point was > 400 °C. In the case of `CN(CCCCCCC(=O)O)c1cnc(-c2ccccc2)c(-c2ccccc2)n1`, the melting point is reported as 114 to 118 °C. Work on `CNCCNc1noc2cc(OC)ccc12` yielded a melting point of 136 to 137 °C. Work on `O=C1c2ccccc2S(=O)(=O)N1CSc1nnc(SCCN2CCCCC2)s1` yielded a melting point of 100 to 101 °C. Compound `NC(Cc1cc(CP(=O)(O)O)cc(-c2ccc(Cl)cc2)c1)C(=O)OCC=Cc1ccccc1` (stereo not given) has a melting point of 253 to 255 °C. `Cc1ccc(C(=O)COc2cc(C)cc(C)c2C)nc1` gave a melting point of 94 to 95 °C. `CCCCSc1cc(C(=O)O)cc(S(N)(=O)=O)c1Cl` showed a melting point of 202 to 203 °C. `CC(=O)C(Cc1cc(Cl)cc(Cl)c1)C(C)=O` showed a melting point of 85 to 87 °C. Work on `O=C(COc1ccc(C(=O)C=CC(=O)N2CCCCC2)c(O)c1)Nc1nc2ccccc2s1` yielded a melting point of 207 to 210 °C. `CCC#CCOc1cc2c(cc1/C=C/c1ccc(C(=O)OCC)cc1)C(C)(C)CCC2(C)C` showed a melting point of 80 to 82 °C. `FC(F)(F)c1cccc(N2CCC(N=Cc3cccc4ccccc34)=N2)c1` showed a melting point of 173 °C. Work on `CCCCCN(C(=O)Nc1ccc(C(=O)O)cn1)c1ccc2c(c1)C(C)(C)CCC2(C)C` yielded a melting point of 175 to 180 °C. With `CCOc1nn(Cc2ccc(OCc3cccnc3)c(OC)c2)cc1CCC(=O)O` the melting point was 124 to 125 °C. For `O=C1Cc2cc([N+](=O)[O-])c(NC(=O)c3ccncc3)cc2N1`, the melting point was > 300 °C. `Cc1cc(Cc2ccccc2)nc(Nc2ccc(C(=O)NN)c(F)c2)n1` showed a melting point of 191 to 193 °C. Work on `CC(C)(C)c1cc(C(=O)c2ccc[nH]2)cc(C(C)(C)C)c1O` yielded a melting point of 146 °C. Compound `O=C1OC(c2ccccc2)=NC1=Cc1c(O)ccc2ccccc12` has a melting point of 228 to 229 °C. `COC(=O)CN(C(=O)CCCOc1ccc2c(c1)CN1CC(=O)NC1=N2)C1CCCCC1` showed a melting point of 185 to 186 °C. With `CCc1noc(-c2cn(-c3cccc(Cl)c3)cn2)n1` the melting point was 134 to 135 °C. In the case of `OCC1=C(c2cc3ccccc3s2)N2CCN=C2S1`, the melting point is reported as 138 to 140 °C. `O=c1c2ccc(F)cc2nc(CSc2ncnc3[nH]cnc23)n1-c1ccccc1Cl` showed a melting point of 151 to 154 °C. In the case of `CN(C)CCCCCCCOc1ccc2oc(-c3ccccc3)cc(=O)c2c1`, the melting point is reported as 90 to 91 °C. Compound `COc1ccc(C(C#N)C(=O)C(=O)C(C#N)c2ccccc2)cc1` (stereo not given) has a melting point of 256 to 258 °C. `COc1cc(Nc2nccc(-c3sc(-c4cccnc4)nc3C)n2)cc(OC)c1OC` showed a melting point of 210 to 211 °C. With `Cc1cc(Br)ccc1C(CO)NC(=O)c1c(Cl)cncc1Cl` (stereo not given) the melting point was 192 to 194 °C. Compound `CCCCn1c(=O)n(CC=C(C)C)c(=O)c2c1ncn2S(=O)(=O)c1ccc(C)cc1` has a melting point of 130 to 135 °C. `CC(C)(C)C(O)(CC#CBr)C(Oc1ccc(Cl)cc1)n1cncn1` (stereo not given) showed a melting point of 156 to 160 °C. `COc1ccccc1N1CCN(CCn2c(=O)[nH]c3ccc(O)c(O)c3c2=O)CC1` showed a melting point of 223 to 227 °C. Compound `[O-][N+]1=C(c2ccccc2)c2cc(Cl)ccc2C=CC1` has a melting point of 122 to 123 °C. For `CCN(c1ccc(Cl)cc1)c1cc(NC)nc(C)n1`, the melting point was 133 to 136 °C. `ON=C1CCCOc2ccccc21` showed a melting point of 96 to 98 °C. `CN1CCN(c2cc(Cl)cc3c2c(=O)n(Cc2ccccc2F)c(=O)n3Cc2ccccc2)CC1` gave a melting point of 147 to 149 °C. Compound `CCN1CCN(c2ccc(CC3=C(C)C(=O)c4ccccc4C3=O)cc2)CC1` has a melting point of 81 to 82 °C. With `CCOC(=O)/C=C(/c1ccc(OC)cc1)c1cccc(C#N)c1` the melting point was 105 to 106 °C. `N#Cc1ccc(-c2ccc(C=O)cc2)c(OCc2ccccc2)c1` showed a melting point of 131 to 132 °C. Compound `Fc1ccc(-c2nn3c(c2-c2ccncc2)NNCC3)cc1` has a melting point of 233 to 235 °C. For `N#Cc1cc2c(cc1F)OCC21C(=O)N(Cc2ccccn2)c2ccccc21` (stereo not given), the melting point was 108 to 109 °C. In the case of `CC(C)(CO)Nc1cc(Cl)ccc1[N+](=O)[O-]`, the melting point is reported as 102 to 104 °C. `CO[C@@H](Cc1ccc(OCCc2nc(-c3ccc(-c4ccccc4)cc3)oc2C)c2ccccc12)C(=O)O` gave a melting point of 156 to 159 °C. In the case of `CC(C)c1cccc(C(C)C)c1NC(=O)[C@H](C)N`, the melting point is reported as 118 to 122 °C. For `CCC(C(=O)c1ccc(OCc2ccccc2)cc1)c1ccccc1` (stereo not given), the melting point was 71 °C. With `COc1ccc(C(=O)NCc2ccccc2)c2c1oc1ccc(N)cc12` the melting point was 228 °C. Work on `O=C(CCl)Nc1ccc2c(c1NC(=O)c1ccc(C(F)(F)F)cc1)C(=O)c1ccccc1C2=O` yielded a melting point of 203 to 204 °C. For `CCCCC(CC)COC(=O)C(C#N)=Cc1ccc(NC(=O)C(CC)CCCC)cc1` (stereo not given), the melting point was 68 °C. For `Cc1nc(-c2ccccc2)nc(N2CCN(c3ccc(O)cc3)CC2)c1C`, the melting point was 202 °C. `c1cnn(Cc2ccc3c(c2)Cc2c(-c4ccsc4)n[nH]c2-3)c1` gave a melting point of 262 to 270 °C. `Clc1cc(Cl)cc(-c2cc3cc(Cl)cc(Cl)c3[nH]2)c1` showed a melting point of 189 to 190 °C. Compound `CSc1sc(C(=O)N2CCCCCC2)c2c1C(=O)CC(C)(C)C2` has a melting point of 168 to 170 °C. Work on `CC(C)c1nc(-c2ccccc2)n(-c2ccc(F)cc2)c1CO` yielded a melting point of 186 to 188 °C. Work on `CC1OC(Cn2cncn2)(c2ccc(Cl)cc2Cl)CN1S(=O)(=O)c1ccc(C(F)(F)F)cc1` (stereo not given) yielded a melting point of 188 to 190 °C. Work on `CS(=O)(=O)c1ccc(-c2cnn(-c3ccc(F)cc3)c(=O)c2Cc2ccc(F)cc2)cc1` yielded a melting point of 175 to 177 °C. `C[C@@H]1CN(C(=O)c2cc3c(C(=O)OC(C)(C)C)ncn3c3ccccc23)C[C@H](C)N1` gave a melting point of 233 to 234 °C. In the case of `CCN(C)c1nc2cccc(C(=O)OC)c2n1Cc1ccc(-c2ccccc2C#N)cc1`, the melting point is reported as 66 to 69 °C. `NCc1ccc(F)cc1C(F)(F)C(F)(F)c1ccccc1` showed a melting point of 52.5 to 54 °C. In the case of `CC(C)=C1CNc2ccc(O)cc21`, the melting point is reported as 175 to 178 °C. `C[C@@H](n1ccn(-c2ccc(-n3nccn3)cc2)c1=O)[C@](O)(Cn1cncn1)c1ccc(F)cc1F` gave a melting point of 182 to 185 °C. For `COC(=O)c1cc(C(F)(F)F)cc(OCc2ccccc2)c1OCc1ccccc1`, the melting point was 78 to 79 °C. Compound `O=S(=O)(NN=C(Cl)c1ccc(F)cc1Cl)c1ccccc1` has a melting point of 133 to 135 °C. In the case of `O=c1[nH]c(=O)n(C2CC(O)C(COC3(c4ccccc4)c4ccccc4Oc4ccccc43)O2)cc1I` (stereo not given), the melting point is reported as 200 to 202 °C. For `O=C(O)c1ccc(C(=O)NS(=O)(=O)c2ccc(Cl)cc2)cc1`, the melting point was 285 to 287 °C. `Cc1nc(N)c2c(=O)n(C)c(=O)n(C)c2n1` gave a melting point of 267 °C. In the case of `OCc1csc(Nc2ccc(Br)cn2)n1`, the melting point is reported as 207 to 209 °C. Work on `CCN1c2ncccc2C(=O)N(C)c2ccc(-c3c[nH]c(C#N)c3)nc21` yielded a melting point of 268 to 269 °C. `CC(C)(C)OC(=O)NCC(=O)Oc1cc2c(c3ccccc13)Nc1ccccc1S2` gave a melting point of 175 °C. `CCS(=O)(=O)Nc1cc(-c2ncnc(C(F)F)c2Cl)c(F)cc1Cl` showed a melting point of 138 to 139 °C. `Cc1c(OCC(F)(F)F)ccnc1CS(=O)c1nc2ccccc2n1N` (stereo not given) gave a melting point of 111 to 113 °C. For `Cc1c(C)c2c(c(C)c1NC(=O)CC(C)(C)C)C(c1ccc(F)cc1)C(C)(C)O2` (stereo not given), the melting point was 194 to 195 °C. `CCCS(=O)c1ccc(N)c([N+](=O)[O-])c1` (stereo not given) showed a melting point of 109 to 112 °C. In the case of `O=c1[nH]cnc(C(F)(F)F)c1Cl`, the melting point is reported as 191 to 192 °C. `CC(C)Oc1cc(C(=O)O)n(Cc2ncc(C(F)(F)F)cc2Cl)n1` showed a melting point of 124 to 125 °C. `CN(C(=O)CN1C(=O)c2ccccc2S1(=O)=O)c1ccccc1` showed a melting point of 205 to 206 °C. Compound `CCOC(=O)C1Cc2ccc(N(C)C)cc2NC1=O` (stereo not given) has a melting point of 181 to 182 °C. For `C=CCOC(=O)NCC(=N)NO`, the melting point was 91 to 92 °C. Compound `N#CCOc1ccccc1OCC#N` has a melting point of 85 to 85.5 °C. Compound `O=C(/C=C/c1ccccc1Cl)Nc1ccc(-n2nc(C(F)(F)F)cc2C(F)(F)F)cc1` has a melting point of 173 to 175 °C. Work on `CCc1cn(C2OC(CO)C(O)C2O)c(=O)[nH]c1=O` (stereo not given) yielded a melting point of 180 to 181 °C. In the case of `COc1cc2cccc3c2c(n1)-c1ccccc1C3=O`, the melting point is reported as 190 to 192 °C. `COc1ccc(-c2cc(=O)n(Cc3ccc(Cl)cc3Cl)nc2-c2ccc(OC)cc2)cc1` gave a melting point of 141 °C. Work on `NC(=O)N(c1ccc(C(F)(F)F)cc1)c1nc(Cl)cc(Cl)n1` yielded a melting point of 99 to 101 °C. Work on `Cc1cc(NCCO)c2nn(C)c(C)c2n1` yielded a melting point of 186 to 189 °C. Compound `C[C@@]1(C(=O)O)CSC(Cc2cc(F)cc(F)c2)=N1` has a melting point of 120 to 122 °C. `O=C(Nc1ccc(F)c(Cl)c1F)C(F)(F)F` gave a melting point of 73 to 74 °C. `C[Si](C)(C)OC1c2cc(Br)ccc2-c2ccc(Br)cc2C1O[Si](C)(C)C` (stereo not given) showed a melting point of 144 to 145 °C. Work on `Cc1ccc(-c2ccc(C(=O)N3Cc4cccn4Cc4ccccc43)cc2)c2ccccc12` yielded a melting point of 160 to 162 °C. In the case of `Cn1cnc2nc(-c3cccc4ccccc34)nn2c1=S`, the melting point is reported as 278 to 279 °C. Compound `OC1(Cc2nc[nH]n2)CCCc2ccccc21` (stereo not given) has a melting point of 105 to 108 °C. With `O=C1CCCc2nc3ccccc3c(NCCc3ccccc3)c21` the melting point was 129 to 132 °C. Compound `COc1cccc(S(=O)(=O)N2CCc3cc(OCc4ccccc4)c(OC)cc3C2)c1` has a melting point of 124 to 125 °C. In the case of `CC(=O)OCN1C(=O)CN(CCN2CC(=O)N(COC(C)=O)C(=O)C2)CC1=O`, the melting point is reported as 178 to 181 °C. For `CN(Cc1ccccc1)C1Cc2cccc3[nH]c(=O)n(c23)C1` (stereo not given), the melting point was 145 to 149 °C. Work on `CSc1cc2c(cc1C(F)(F)F)N(C(=O)Nc1cccc(C(=O)NCCN(C(C)C)C(C)C)c1)CC2` yielded a melting point of 97 to 99 °C. `CCN(CC)C(=O)Nc1ccc(S(=O)(=O)N2C(=O)C(N[C@@H](C)C(=O)OC)(c3ccccc3Cl)c3cc(Cl)ccc32)cc1` (stereo not given in full) showed a melting point of 204 °C. Compound `Nc1ccc2[nH]c(=O)cc(CCN3CCC(c4c[nH]c5ccccc45)CC3)c2c1` has a melting point of 214 to 216 °C.

Reference: a melting point compilation (Tetko et al.; mined from patent text by program, amines drawn as free bases though some values may be those of a salt)
